pIC50: −log10 of the molar value. Read-outs that look alike come from different tables or passages of the source. Residues, ends and D or L forms follow the SMILES beside them.
Tests used:
[1] = biological target: T1, DR4Dw4 (DRB1*0401) HLA-DR molecules (Homo sapiens, UniProt P01903+P01911, A100K/A169T/F76Y/I96L/K127E/L162R/M171V/N62H/P40V/Q125Y/R42H/S133A/S149N/S66Y/V115G/V209L/W38E); test: HLA-DR peptide binding assay (competition with biotinylated marker peptide), DR4Dw4; conditions: pH = 5, 50 nM biotin-spacer-IHA(307-319)F marker peptide
T1 construct: endogenous in cells; host or cells: BSM, EBV-transformed B-cell line

PBMC from healthy donors = test: Proliferative responses of PBMC from healthy donors (3H-thymidine); assay type: cell-based, human; conditions: 10% autologous serum
Protocol: PBMC's from healthy donors carrying the DR4Dw4 (DRB1*0401) or the DR1 specificity were collected as a control.
(§1) PBMC obtained from heparinized venous peripheral blood were isolated by standard centrifugation on a Ficoll-Paque gradient. […] Cultures were incubated in a total volume of 210 μl for 7 days at 37° C. in a humidified atmosphere of 5% CO2. Cultures were pulsed during the last 18 hours with 0.25 μCi^3 H-thymidine.

DR4Dw14 HLA-DR molecules = test: HLA-DR peptide binding assay (competition with biotinylated marker peptide), DR4Dw14; design: species or system human; conditions: pH = 5, 50 nM biotin-spacer-IHA(307-319)F marker peptide
PBMC from RA patients = test: Proliferative responses of PBMC from RA patients (3H-thymidine); assay type: cell-based, human; conditions: 10% autologous serum
Protocol: Peripheral blood mononuclear cells (PBMC) from patients who were diagnosed as suffering from RA according to the American Rheumatism Association (ARA) criteria (Arnett et al., Arthritis Rheum. 31:315, 1988) were collected.
as §1

CC(C)[C@H](N)C(=O)NCC(=O)N[C@@H](Cc1ccc(O)cc1)C(=O)N[C@@H](CC(=O)O)C(=O)N[C@@H](CC(=O)O)C(=O)N[C@@H](CCC(N)=O)C(=O)N[C@@H](CCC(=O)O)C(=O)N[C@@H](CO)C(=O)N[C@H](C(=O)N[C@@H](CCCCN)C(=O)N[C@@H](CO)C(=O)N[C@@H](CCCCN)C(=O)N[C@H](C(=O)O)C(C)C)C(C)C [Peptide 3] (H-VGYDDQESVKSKV-OH)
pIC50 ([1]; DOT Blot, densitometer, read-out: ^R IC50, DR4Dw4, DOT Blot): 6.64 | pIC50 ([1]; SDS-PAGE, visual inspection, read-out: ^R IC50, DR4Dw4, SDS-PAGE): 6.00 | Proliferative response, stimulation index (SI) (PBMC from healthy donors; healthy donor 155-03 (NR), peptide 10 μg/ml): < 2 | Proliferative response, stimulation index (SI) (PBMC from healthy donors; healthy donor 155-03 (NR), peptide 100 μg/ml): 1 | Proliferative response, stimulation index (SI) (PBMC from healthy donors; healthy donor 156-03 (NR), peptide 10 μg/ml): 1 | Proliferative response, stimulation index (SI) (PBMC from healthy donors; healthy donor 156-03 (NR), peptide 100 μg/ml): < 1 | Proliferative response, stimulation index (SI) (PBMC from healthy donors; healthy donor 157-03 (NR), peptide 10 μg/ml): 1 | Proliferative response, stimulation index (SI) (PBMC from healthy donors; healthy donor 157-03 (NR), peptide 100 μg/ml): 1 | Proliferative response, stimulation index (SI) (PBMC from healthy donors; healthy donor 157-04 (R), peptide 10 μg/ml): 1 | Proliferative response, stimulation index (SI) (PBMC from healthy donors; healthy donor 168-03 (NR), peptide 10 μg/ml): 1 | Proliferative response, stimulation index (SI) (PBMC from healthy donors; healthy donor 168-03 (NR), peptide 100 μg/ml): 1 | Proliferative response, stimulation index (SI) (PBMC from healthy donors; healthy donor 168.02 (NR), peptide 10 μg/ml): < 2 | Proliferative response, stimulation index (SI) (PBMC from healthy donors; healthy donor 168.02 (NR), peptide 100 μg/ml): < 2 | Proliferative response, stimulation index (SI) (PBMC from healthy donors; healthy donor 169-02 (NR), peptide 10 μg/ml): 1 | Proliferative response, stimulation index (SI) (PBMC from healthy donors; healthy donor 169-02 (NR), peptide 100 μg/ml): 1 | Proliferative response, stimulation index (SI) (PBMC from healthy donors; healthy donor 230-01 (NR), peptide 10 μg/ml): 1 | Proliferative response, stimulation index (SI) (PBMC from healthy donors; healthy donor 230-01 (NR), peptide 100 μg/ml): 1 | Proliferative response, stimulation index (SI) (PBMC from healthy donors; healthy donor 235-0 (NR), peptide 10 μg/ml): 1 | Proliferative response, stimulation index (SI) (PBMC from healthy donors; healthy donor 235-0 (NR), peptide 100 μg/ml): < 2 | Proliferative response, stimulation index (SI) (PBMC from healthy donors; healthy donor 235-01 (NR), peptide 10 μg/ml): < 1 | Proliferative response, stimulation index (SI) (PBMC from healthy donors; healthy donor 235-01 (NR), peptide 100 μg/ml): < 2 | Proliferative response, stimulation index (SI) (PBMC from healthy donors; healthy donor 236-01 (NR), peptide 10 μg/ml): 1 | Proliferative response, stimulation index (SI) (PBMC from healthy donors; healthy donor 236-01 (NR), peptide 100 μg/ml): < 1 | Proliferative response, stimulation index (SI) (PBMC from healthy donors; healthy donor 237-0 (NR), peptide 10 μg/ml): < 1 | Proliferative response, stimulation index (SI) (PBMC from healthy donors; healthy donor 237-0 (NR), peptide 100 μg/ml): 1 | Proliferative response, stimulation index (SI) (PBMC from healthy donors; healthy donor 237-01 (NR), peptide 10 μg/ml): 1 | Proliferative response, stimulation index (SI) (PBMC from healthy donors; healthy donor 237-01 (NR), peptide 100 μg/ml): 1 | Proliferative response, stimulation index (SI) (PBMC from healthy donors; healthy donor 238-01 (NR), first line so labelled, peptide 10 μg/ml): 1 | Proliferative response, stimulation index (SI) (PBMC from healthy donors; healthy donor 238-01 (NR), first line so labelled, peptide 100 μg/ml): 1 | Proliferative response, stimulation index (SI) (PBMC from healthy donors; healthy donor 238-01 (NR), second line so labelled, peptide 10 μg/ml): 1 | Proliferative response, stimulation index (SI) (PBMC from healthy donors; healthy donor 238-01 (NR), second line so labelled, peptide 100 μg/ml): 1 | Proliferative response, stimulation index (SI) (PBMC from healthy donors; healthy donor 241-0 (NR), peptide 10 μg/ml): < 1 | Proliferative response, stimulation index (SI) (PBMC from healthy donors; healthy donor 241-0 (NR), peptide 100 μg/ml): < 1 | Proliferative response, stimulation index (SI) (PBMC from healthy donors; healthy donor 241-01 (R), peptide 10 μg/ml): < 1 | Proliferative response, stimulation index (SI) (PBMC from healthy donors; healthy donor 241-01 (R), peptide 100 μg/ml): 1 | pIC50 (DR4Dw14 HLA-DR molecules; DOT Blot, densitometer, read-out: ^R IC50, DR4Dw14, DOT Blot): < 5.00 | pIC50 (DR4Dw14 HLA-DR molecules; SDS-PAGE, visual inspection, read-out: ^R IC50, DR4Dw14, SDS-PAGE): ≥ 4.30 | Proliferative response, stimulation index (SI) (PBMC from RA patients; RA patient 191-03 (HR), disease state IV, peptide 10 μg/l): 1 | Proliferative response, stimulation index (SI) (PBMC from RA patients; RA patient 191-03 (HR), disease state IV, peptide 100 μg/l): < 2 | Proliferative response, stimulation index (SI) (PBMC from RA patients; RA patient 215-0 (HR), disease state III-IV, peptide 25 μg/l): 3 | Proliferative response, stimulation index (SI) (PBMC from RA patients; RA patient 215-0 (HR), disease state III-IV, peptide 100 μg/l): 6 | Proliferative response, stimulation index (SI) (PBMC from RA patients; RA patient 240-0 (HR), disease state II-III, peptide 25 μg/l): 2 | Proliferative response, stimulation index (SI) (PBMC from RA patients; RA patient 240-0 (HR), disease state II-III, peptide 100 μg/l): 6 | Proliferative response, stimulation index (SI) (PBMC from RA patients; RA patient 242-0 (HR), disease state I, peptide 25 μg/l): 9 | Proliferative response, stimulation index (SI) (PBMC from RA patients; RA patient 242-0 (HR), disease state I, peptide 100 μg/l): 3 | Proliferative response, stimulation index (SI) (PBMC from RA patients; RA patient 243-0 (R), disease state III, peptide 10 μg/l): 1 | Proliferative response, stimulation index (SI) (PBMC from RA patients; RA patient 243-0 (R), disease state III, peptide 100 μg/l): 1 | Proliferative response, stimulation index (SI) (PBMC from RA patients; RA patient 247-0 (R), disease state III, peptide 10 μg/l): 1 | Proliferative response, stimulation index (SI) (PBMC from RA patients; RA patient 248-0 (R), disease state III, peptide 10 μg/l): 1 | Proliferative response, stimulation index (SI) (PBMC from RA patients; RA patient 248-0 (R), disease state III, peptide 100 μg/l): 1 | Proliferative response, stimulation index (SI) (PBMC from RA patients; RA patient 272-0 (HR), disease state III-IV, peptide 10 μg/l): < 1 | Proliferative response, stimulation index (SI) (PBMC from RA patients; RA patient 272-0 (HR), disease state III-IV, peptide 100 μg/l): < 1 | Proliferative response, stimulation index (SI) (PBMC from RA patients; RA patient 273-0 (HR), disease state IV, peptide 10 μg/l): 1 | Proliferative response, stimulation index (SI) (PBMC from RA patients; RA patient 273-0 (HR), disease state IV, peptide 100 μg/l): 6 | Proliferative response, stimulation index (SI) (PBMC from RA patients; RA patient 275-0 (HR), disease state III, peptide 10 μg/l): 1 | Proliferative response, stimulation index (SI) (PBMC from RA patients; RA patient 275-0 (HR), disease state III, peptide 100 μg/l): 1 | Proliferative response, stimulation index (SI) (PBMC from RA patients; RA patient 276-0 (HR), disease state IV, burnt out, peptide 10 μg/l): < 1 | Proliferative response, stimulation index (SI) (PBMC from RA patients; RA patient 276-0 (HR), disease state IV, burnt out, peptide 100 μg/l): 1 | Proliferative response, stimulation index (SI) (PBMC from RA patients; RA patient 280-0 (HR), disease state IV, burnt out, peptide 10 μg/l): 1 | Proliferative response, stimulation index (SI) (PBMC from RA patients; RA patient 280-0 (HR), disease state IV, burnt out, peptide 100 μg/l): 1
